Assay results reported in patent US20230002375A1, “HYDROPYRAZINO[1,2-B]ISOQUINOLINE COMPOUNDS FOR THE TREATMENT OF AUTOIMMUNE DISEASE” (Hoffmann-La Roche Inc., priority 2019, published 2023).

target: T1, human TLR8 (Homo sapiens, UniProt Q9NR97); experiment: HEK293-Blue-hTLR-8 cells assay (SEAP reporter, R848 stimulation); type: cell-based; settings: HEK293-Blue-hTLR8 cells, R848, 20 hrs incubation; read-out: HEK/hTLR8 IC50
T1 sequence (Q9NR97 27-1041): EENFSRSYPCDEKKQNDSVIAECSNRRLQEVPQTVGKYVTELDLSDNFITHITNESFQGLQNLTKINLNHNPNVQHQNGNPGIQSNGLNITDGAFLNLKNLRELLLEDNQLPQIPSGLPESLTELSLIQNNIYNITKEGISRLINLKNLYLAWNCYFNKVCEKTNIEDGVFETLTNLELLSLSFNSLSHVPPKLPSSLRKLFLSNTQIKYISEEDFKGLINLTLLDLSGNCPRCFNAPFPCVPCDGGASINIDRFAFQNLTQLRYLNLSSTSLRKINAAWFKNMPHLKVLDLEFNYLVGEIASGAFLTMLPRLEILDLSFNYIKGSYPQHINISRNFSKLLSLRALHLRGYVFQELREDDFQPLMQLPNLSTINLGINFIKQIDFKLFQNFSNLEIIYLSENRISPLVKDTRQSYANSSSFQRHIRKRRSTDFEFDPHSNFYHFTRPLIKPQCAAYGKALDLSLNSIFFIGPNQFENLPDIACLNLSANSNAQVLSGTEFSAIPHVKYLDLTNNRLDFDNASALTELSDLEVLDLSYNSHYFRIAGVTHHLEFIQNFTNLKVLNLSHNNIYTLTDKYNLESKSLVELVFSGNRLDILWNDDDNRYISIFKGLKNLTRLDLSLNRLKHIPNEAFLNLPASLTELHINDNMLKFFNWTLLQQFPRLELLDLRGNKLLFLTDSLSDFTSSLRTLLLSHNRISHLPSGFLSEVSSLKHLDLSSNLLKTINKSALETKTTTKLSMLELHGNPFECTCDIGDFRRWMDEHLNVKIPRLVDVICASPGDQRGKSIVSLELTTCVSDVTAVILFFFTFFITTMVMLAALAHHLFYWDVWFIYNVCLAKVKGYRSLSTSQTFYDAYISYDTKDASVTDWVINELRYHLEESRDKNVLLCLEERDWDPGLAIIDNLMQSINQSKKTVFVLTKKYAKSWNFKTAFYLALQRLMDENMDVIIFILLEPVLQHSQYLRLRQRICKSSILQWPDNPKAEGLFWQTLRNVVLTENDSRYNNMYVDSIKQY
Description: The following tests were carried out in order to determine the activity of the compounds of formula (I), (Ia) or (Ib) in HEK293-Blue-hTLR-7/8/9 cells assay.
HEK293-Blue-hTLR-8 Cells Assay:
A stable HEK293-Blue-hTLR-8 cell line was purchased from InvivoGen (Cat.#: hkb-htlr8, San Diego, Calif., USA). These cells were originally designed for studying the stimulation of human TLR8 by monitoring the activation of NF-κB. A SEAP (secreted embryonic alkaline phosphatase) reporter gene was placed under the control of the IFN-β minimal promoter fused to five NF-κB and AP-1-binding sites. The SEAP was induced by activating NF-κB and AP-1 via stimulating HEK-Blue hTLR8 cells with TLR8 ligands. Therefore the reporter expression was declined by TLR8 antagonist under the stimulation of a ligand, such as R848, for incubation of 20 hrs. The cell culture supernatant SEAP reporter activity was determined using QUANTI-Blue™ kit (Cat.#: rep-qb1, Invivogen, San Diego, Ca, USA) at a wavelength of 640 nm, a detection medium that turns purple or blue in the presence of alkaline phosphatase.
HEK293-Blue-hTLR8 cells were incubated at a density of 250,000-450,000 cells/mL in a volume of 170 μL in a 96-well plate in Dulbecco's Modified Eagle's medium (DMEM) containing 4.5 g/L glucose, 50 U/mL penicillin, […], […], 2 mM L-glutamine, 10% (v/v) heat-inactivated fetal bovine serum with addition of 20 μL test compound in a serial dilution in the presence of final DMSO at 1% and 10 μL of 60 uM R848 in above DMEM, perform incubation under 37° C. in a CO2 incubator for 20 hrs. Then 20 μL of the supernatant from each well was incubated with 180 μL Quanti-blue substrate solution at 37° C. for 2 hrs and the absorbance was read at 620˜655 nm using a spectrophotometer. The signaling pathway that TLR8 activation leads to downstream NF-κB activation has been widely accepted, and therefore similar reporter assay was modified for evaluating TLR8 antagonist.

| IC50 [nM] | SMILES |
| --- | --- |
| 1.5 | C[C@@H]1CN(c2ccc(C#N)c3ncccc23)C[C@@H]2Cc3cc(N4CC5NCCOC5C4)ccc3CN21 (stereo in doubt) [Example 10, 5-[(4R,11aS)-9-[(4aS,7aS)-3,4,4a,5,7,7a-hexahydro-2H-pyrrolo[3,4-b][1,4]oxazin-6-yl]-4-methyl-1,3,4,6,11,11a-hexahydropyrazino[1,2-b]isoquinolin-2-yl]quinoline-8-carbonitrile] |
| 1.4 | C[C@@H]1CN(c2ccc(C#N)c3ncccc23)C[C@@H]2Cc3cc(N4CCN(C(=O)[C@]5(C)CCCN5)CC4)ccc3CN21 [Example 14, 5-[(4R,11aS)-4-methyl-9-[4-[(2S)-2-methylpyrrolidine-2-carbonyl]piperazin-1-yl]-1,3,4,6,11,11a-hexahydropyrazino[1,2-b]isoquinolin-2-yl]quinoline-8-carbonitrile] |
| 11.1 | C[C@@H]1CN(c2ccc(C#N)c3ncccc23)C[C@@H]2Cc3cc(OCCN(C)C)ccc3CN21 [Example 11, 5-[(4R,11aS)-9-[2-(dimethylamino)ethoxy]-4-methyl-1,3,4,6,11,11a-hexahydropyrazino[1,2-b]isoquinolin-2-yl]quinoline-8-carbonitrile] |
| 4.2 | C[C@@H]1CN(c2ccc(C#N)c3ncccc23)C[C@@H]2Cc3cc(N4CC5CNCCC5C4=O)ccc3CN21 (stereo partly drawn) [Example 19, 5-[(4R,11aS)-4-methyl-9-(1-oxo-3a,4,5,6,7,7a-hexahydro-3H-pyrrolo[3,4-c]pyridin-2-yl)-1,3,4,6,11,11a-hexahydropyrazino[1,2-b]isoquinolin-2-yl]quinoline-8-carbonitrile] |
| 14.5 | C[C@@H]1CN(c2ccc(C#N)c3ncccc23)C[C@@H]2Cc3cc(N4CC5CCNCC5C4=O)ccc3CN21 (stereo partly drawn) [Example 18, 5-[(4R,11aS)-4-methyl-9-(3-oxo-3a,4,5,6,7,7a-hexahydro-1H-pyrrolo[3,4-c]pyridin-2-yl)-1,3,4,6,11,11a-hexahydropyrazino[1,2-b]isoquinolin-2-yl]quinoline-8-carbonitrile] |
| 8 | C[C@@H]1CN(c2ccc(C#N)c3ncccc23)C[C@@H]2Cc3cc(N4C[C@@H]5CNCCN5C4=O)ccc3CN21 (single isomer, unassigned) [Example 17A] |
| 5.3 | C[C@@H]1CN(c2ccc(C#N)c3ncccc23)C[C@@H]2Cc3cc(N4CC(N)CC4=O)ccc3CN21 (stereo partly drawn) [Example 16, 5-[(4R,11aS)-9-(4-amino-2-oxo-pyrrolidin-1-yl)-4-methyl-1,3,4,6,11,11a-hexahydropyrazino[1,2-b]isoquinolin-2-yl]quinoline-8-carbonitrile] |
| 22.9 | C[C@@H]1CN(c2ccc(C#N)c3ncccc23)C[C@@H]2Cc3cc(OC[C@@H]4CCN4)ccc3CN21 [Example 12, 5-[(4R,11aS)-9-[[(2S)-azetidin-2-yl]methoxy]-4-methyl-1,3,4,6,11,11a-hexahydropyrazino[1,2-b]isoquinolin-2-yl]quinoline-8-carbonitrile] |
| 2.4 | C[C@@H]1CN(c2ccc(C#N)c3ncccc23)C[C@@H]2Cc3cc(N4C[C@H]5CNCCN5C4=O)ccc3CN21 (single isomer, unassigned) [Example 17B] |
| 4.7 | C[C@@H]1CN(c2ccc(C#N)c3ncccc23)C[C@@H]2Cc3cc(N4C[C@@H]5C[C@H]4CN5C(=O)C(C)(C)N)ccc3CN21 [Example 15, 5-[(4R,11aS)-9-[(1S,4S)-5-(2-amino-2-methyl-propanoyl)-2,5-diazabicyclo[2.2.1]heptan-2-yl]-4-methyl-1,3,4,6,11,11a-hexahydropyrazino[1,2-b]isoquinolin-2-yl]quinoline-8-carbonitrile] |
| 37.5 | C[C@@H]1CN(c2ccc(C#N)c3ncccc23)C[C@@H]2Cc3cc(N4CCN(C(=O)C(C)(C)N)CC4)ccc3CN21 [Example 13, 5-[(4R,11aS)-9-[4-(2-amino-2-methyl-propanoyl)piperazin-1-yl]-4-methyl-1,3,4,6,11,11a-hexahydropyrazino[1,2-b]isoquinolin-2-yl]quinoline-8-carbonitrile] |

Second part, the molecule before the results:

| SMILES | IC50 [nM] |
| --- | --- |
| CO[C@H]1CNC[C@H]1Nc1ccc2c(c1)C[C@H]1CN(c3ccc(C#N)c4ncccc34)C[C@@H](C)N1C2 [Example 7, 5-[(4R,11aS)-9-[[(3R,4S)-4-methoxypyrrolidin-3-yl]amino]-4-methyl-1,3,4,6,11,11a-hexahydropyrazino[1,2-b]isoquinolin-2-yl]quinoline-8-carbonitrile] | 13.5 |
| C[C@@H]1CN(c2ccc(C#N)c3ncccc23)C[C@@H]2Cc3cc(N[C@@H]4CNC[C@@H]4F)ccc3CN21 [Example 6, 5-[(4R,11aS)-4-methyl-9-[[(3R,4S)-4-fluoropyrrolidin-3-yl]amino]-1,3,4,6,11,11a-hexahydropyrazino[1,2-b]isoquinolin-2-yl]quinoline-8-carbonitrile] | 26.1 |
| CO[C@H]1CN(c2ccc3c(c2)C[C@H]2CN(c4ccc(C#N)c5ncccc45)C[C@@H](C)N2C3)C[C@H]1N [Example 9, 5-[(4R,11aS)-9-[(3R,4S)-3-amino-4-methoxy-pyrrolidin-1-yl]-4-methyl-1,3,4,6,11,11a-hexahydropyrazino[1,2-b]isoquinolin-2-yl]quinoline-8-carbonitrile] | 2.3 |
| C[C@@H]1CN(c2ccc(C#N)c3ncccc23)C[C@@H]2Cc3ccc(OCCN(C)C)cc3CN21 [Example 5, 5-[(4R,11aS)-8-[2-(dimethylamino)ethoxy]-4-methyl-1,3,4,6,11,11a-hexahydropyrazino[1,2-b]isoquinolin-2-yl]quinoline-8-carbonitrile] | 9.2 |
| C[C@@H]1CN(c2ccc(C#N)c3ncccc23)C[C@@H]2Cc3ccc(N4CCOCC(N)C4)cc3CN21 (stereo partly drawn) [Example 1, 5-[(4R,11aS)-8-(6-amino-1,4-oxazepan-4-yl)-4-methyl-1,3,4,6,11,11a-hexahydropyrazino[1,2-b]isoquinolin-2-yl]quinoline-8-carbonitrile] | 14.5 |
| C[C@@H]1CN(c2ccc(C#N)c3ncccc23)C[C@@H]2Cc3ccc(NCCN4CC[C@H](O)C4)cc3CN21 [Example 2, 5-[(4R,11aS)-8-[2-[(3S)-3-hydroxypyrrolidin-1-yl]ethylamino]-4-methyl-1,3,4,6,11,11a-hexahydropyrazino[1,2-b]isoquinolin-2-yl]quinoline-8-carbonitrile] | 4.2 |
| C[C@@H]1CN(c2ccc(C#N)c3ncccc23)C[C@@H]2Cc3cc(N4C[C@@H](F)[C@@H](N)C4)ccc3CN21 [Example 8, 5-[(4R,11aS)-9-[(3S,4R)-3-amino-4-fluoro-pyrrolidin-1-yl]-4-methyl-1,3,4,6,11,11a-hexahydropyrazino[1,2-b]isoquinolin-2-yl]quinoline-8-carbonitrile] | 21.5 |
